Measured values taken from patent US20120263784A1, “EMERGENCY CONTRACEPTIVE” (LYKA LABS LIMITED, priority 2009, published 2012).

Key:
in vivo [1] = conditions: rat, po
Method: Similarly, 10-μg of LN suspension was administered orally. Blood samples were collected at specific time points and plasma LN concentrations were estimated. The drug plasma concentration at each sampling time points were plotted against time in hr.
Various pharmacokinetic parameters (Cmax, Tmax and t1/2) were determined from drug plasma concentration-time curve. The area under the plasma level curve was calculated by the trapezoidal rule.

in vivo [2] = conditions: rat, po, 10 ug
Method: Size of the drug particles and liposomes in all the formulations was kept between 10-15 μm, as the particles with 10-20 μm are all deposited in the nasal cavity, whereas particles smaller than 1 μm pass with inspired air into the lungs.
Suspension containing 10-μg levonorgestrel was administered intranasally in three different group of rats.
Blood samples were collected at specific time points and plasma levonorgestrel concentrations were estimated. The drug plasma concentration at each sampling time point were plotted against time in hr.
The mucociliary clearance under normal conditions rapidly clears the applied material since there is a little time of contact between the drug and the mucosa. […] CS acts by opening tight junction between epithelial cells.

- Cmax (in vivo [1]): 14.4 ng/mL
- half-life (in vivo [1]): 16.9 h
- Cmax (in vivo [2]): 14.4 ng/mL
- Tmax (in vivo [2]): 2.1 h
- half-life (in vivo [2]): 16.9 h
Structure (SMILES): C#C[C@]1(O)CC[C@H]2[C@@H]3CCC4=CC(=O)CC[C@@H]4[C@H]3CC[C@@]21CC [levonorgestrel]
